From ChEMBL document CHEMBL1201862, “PubChem BioAssay data set” (2004) come the findings set out here.

Test systems include A549; BT-549; HOP-62; HOP-92; HT-29; IGROV-1; K562; LOX IMVI; MDA-N; Malme-3M; NCI-H460; OVCAR-8; PC-3; RPMI-8226; SK-MEL-2; SK-OV-3; SNB-19; SW-620; T47D; U-251.
What all share (experiment): NCI-60 cell line screen, 48 h

The structures appear in SMILES notation.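 Values below derive from 48-hour exposures of cells grown in 96-well plates, with endpoints linearly interpolated between the two concentrations bracketing the appropriate inhibition level. GI50 = concentration required for 50% inhibition of growth.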 The source made the active and inactive calls. Cut-off read from the data, not from the text of the source: active = GI50 up to about 1.1 µM and inactive = higher.

For the molecule `CO[C@H]1C[C@H](O[C@H]2CC[C@]3(C=O)[C@H]4CC[C@]5(C)[C@@H](C6=CC(=O)OC6)CC[C@]5(O)[C@@H]4CC[C@]3(O)C2)O[C@H](C)[C@H]1O` [CYMARIN], the GI50 with A549 was 80.5 nM (active); in the experiment with BT-549 it was 207 nM (active); with HOP-62, 114 nM (active); in the experiment with HOP-92, 341 nM (active); in the experiment with HT-29, 233 nM (active); with IGROV-1, 448 nM (active). The GI50 was 184 nM (active) in the experiment on K562; 184 nM (active) in the experiment with LOX IMVI; 136 nM (active) in the experiment on MDA-N; 225 nM (active) in the experiment with Malme-3M; 112 nM (active) in the experiment with NCI-H460; 307 nM (active) with OVCAR-8. Moreover, the GI50 in the experiment on PC-3 was 203 nM (active); with RPMI-8226, 270 nM (active); in the experiment on SK-MEL-2, 397 nM (active); with SK-OV-3, 114 nM (active); in the experiment with SNB-19, 713 nM (active); in the experiment with SW-620, 243 nM (active). Further, the GI50 is 384 nM (active) with T47D and 314 nM (active) in the experiment with U-251.
Turning to `CC(=O)O[C@H]1C(=O)[C@@]2(C)[C@H]([C@H](OC(=O)C3CCCCC3)[C@]3(O)C[C@H](OC(=O)[C@H](O)[C@@H](NC(=O)OC(C)(C)C)c4ccccc4)C(C)=C1C3(C)C)[C@]1(OC(C)=O)CO[C@@H]1C[C@@H]2O`, the GI50 in the experiment with A549 is 19.4 nM (active); with BT-549 it was 13.4 nM (active); in the experiment on HOP-62 it was 18.1 nM (active); with HOP-92, 14.8 nM (active); with HT-29, 3.35 nM (active); with IGROV-1 it was 3.48 nM (active). For the same molecule, the GI50 in the experiment on K562 was 2.75 nM (active); with LOX IMVI it was 8.17 nM (active); in the experiment with MDA-N, 1.69 nM (active); in the experiment with Malme-3M, 177 nM (active); in the experiment on NCI-H460, 7.62 nM (active); with OVCAR-8, 14.4 nM (active). The GI50 was 16.8 nM (active) with PC-3; 4.57 nM (active) with RPMI-8226; 80.3 nM (active) in the experiment on SK-MEL-2; 15.1 nM (active) in the experiment on SK-OV-3; 32.6 nM (active) in the experiment on SNB-19; 6.34 nM (active) with SW-620. Further, the GI50 with T47D is 67.8 nM (active); in the experiment on U-251, 13.7 nM (active).
`COC(=O)C(Cc1ccccc1)NS(=O)(=O)c1ccc(-c2c3nc(c(-c4ccc(S(=O)(=O)NC(Cc5ccccc5)C(=O)OC)cc4)c4ccc([nH]4)c(-c4ccc(S(=O)(=O)NC(Cc5ccccc5)C(=O)OC)cc4)c4nc(c(-c5ccc(S(=O)(=O)NC(Cc6ccccc6)C(=O)OC)cc5)c5ccc2[nH]5)C=C4)C=C3)cc1` (stereo not given): the GI50 in the experiment with A549 is > 100000 nM (inactive); with BT-549, > 100000 nM (inactive); in the experiment with HOP-62, 60800 nM (inactive); with HOP-92, 31800 nM (inactive); in the experiment with HT-29 it was > 100000 nM (inactive); in the experiment on IGROV-1 it was > 100000 nM (inactive). The GI50 with K562 was > 100000 nM (inactive); with LOX IMVI it was > 100000 nM (inactive); with MDA-N it was > 100000 nM (inactive); with Malme-3M, > 100000 nM (inactive); with NCI-H460, 85500 nM (inactive); in the experiment on OVCAR-8, > 100000 nM (inactive). Further, the GI50 in the experiment on PC-3 is > 100000 nM (inactive); with RPMI-8226, > 100000 nM (inactive); in the experiment with SK-MEL-2, > 100000 nM (inactive); in the experiment with SK-OV-3 it was > 100000 nM (inactive); in the experiment on SNB-19 it was 40900 nM (inactive); in the experiment on SW-620 it was > 100000 nM (inactive). Moreover, the results for the GI50 in the experiment with T47D and with U-251 were > 100000 nM (inactive) and 28100 nM (inactive), respectively.
